System: Plasmodium berghei
Experiment: Luciferase/luciferin-expressing antifolate-resistant parasites were used to infect a culture of HepG2 cells that were pre-incubated with compounds. Infected hepatocytes emit light due to the luciferase reaction. Assay results are presented as the percent inhibition of light emission compared to control. […]
Type: functional
Conditions: sporozoite; for IC90: read-out: LUCIFERASE INFECTION ASSAY - IC90

SMILES	IC90 [µM]	other results
O=C(NCc1ccc(C(F)(F)F)cc1)Nc1cccc2cnccc12	> 10	IC50 (HEPG2TOX_HILL_SLOPE 1.51, HEPG2TOX_R_SQUARED 0.691, read-out: LUCIFERASE INFECTION ASSAY - IC50): > 10 µM
Cc1ccccc1/C=N/NC(N)=S	> 17.1	IC50 (HEPG2TOX_HILL_SLOPE 1.52, HEPG2TOX_R_SQUARED 0.966, read-out: LUCIFERASE INFECTION ASSAY - IC50): > 17.1 µM
Cc1cccc(N2CCN(C(=O)c3cccc(S(=O)(=O)N4CCc5ccccc5C4)c3)CC2C)c1 (centres undefined)	> 10	IC50 (HEPG2TOX_HILL_SLOPE 1.53, HEPG2TOX_R_SQUARED 0.865, read-out: LUCIFERASE INFECTION ASSAY - IC50): > 10 µM
C=C(C)COc1ccc(-c2[nH]nc(C)c2-c2ccc(OC)c(OC)c2)c(O)c1	1.84	IC50 (HEPG2TOX_HILL_SLOPE 1.51, HEPG2TOX_R_SQUARED 0.867, PBLUC_HILL_SLOPE 1.78, PBLUC_R_SQUARED 0.654, read-out: LUCIFERASE INFECTION ASSAY - IC50): 0.535 µM
Cc1ccc2[nH]c(-c3ccccc3O)nc2c1	1.78	IC50 (HEPG2TOX_HILL_SLOPE 1.55, HEPG2TOX_R_SQUARED 0.794, PBLUC_HILL_SLOPE 15.6, PBLUC_R_SQUARED 0.425, read-out: LUCIFERASE INFECTION ASSAY - IC50): 1.54 µM
O=C(Nc1nnc(C(F)(F)F)s1)c1ccc(F)c(Cl)c1	4.03	IC50 (HEPG2TOX_HILL_SLOPE 1.54, HEPG2TOX_R_SQUARED 0.943, PBLUC_HILL_SLOPE 14.8, PBLUC_R_SQUARED 0.531, read-out: LUCIFERASE INFECTION ASSAY - IC50): 3.48 µM
COc1cc(OC)cc(-c2cnc3cnc(-c4ccccc4N(C)C)cn23)c1	3.18	IC50 (HEPG2TOX_HILL_SLOPE 1.54, HEPG2TOX_R_SQUARED 0.879, PBLUC_HILL_SLOPE 8.17, PBLUC_R_SQUARED 0.657, read-out: LUCIFERASE INFECTION ASSAY - IC50): 2.43 µM
CN(C)c1ccc(-c2cnc3cnc(-c4ccc(CO)cc4)cn23)cc1	> 9.58	IC50 (HEPG2TOX_HILL_SLOPE 1.55, HEPG2TOX_R_SQUARED 0.978, PBLUC_HILL_SLOPE 1.15, PBLUC_R_SQUARED 0.872, read-out: LUCIFERASE INFECTION ASSAY - IC50): 1.58 µM
CC1CCCN(c2ccc(C#N)cn2)C1 (centres undefined)	> 10	IC50 (HEPG2TOX_HILL_SLOPE 1.55, HEPG2TOX_R_SQUARED 0.88, PBLUC_HILL_SLOPE 1.47, PBLUC_R_SQUARED 0.333, read-out: LUCIFERASE INFECTION ASSAY - IC50): > 10 µM
CCN(c1ccc(NC(=S)Nc2cccc3ccccc23)cc1)C(C)C	> 10	IC50 (HEPG2TOX_HILL_SLOPE 1.56, HEPG2TOX_R_SQUARED 0.289, PBLUC_HILL_SLOPE 3.28, PBLUC_R_SQUARED 0.342, read-out: LUCIFERASE INFECTION ASSAY - IC50): 5.97 µM
CCCc1c(C(=O)OCC)cnn1-c1c(Cl)cc(Cl)cc1Cl	> 9.12	IC50 (HEPG2TOX_HILL_SLOPE 1.55, HEPG2TOX_R_SQUARED 0.952, PBLUC_HILL_SLOPE 4.67, PBLUC_R_SQUARED 0.0395, read-out: LUCIFERASE INFECTION ASSAY - IC50): 8.3 µM
Clc1ccc(-c2cn3c(-c4ccc5c(c4)OCO5)cnc3cn2)cc1	6.85	IC50 (HEPG2TOX_HILL_SLOPE 1.51, HEPG2TOX_R_SQUARED 0.989, PBLUC_HILL_SLOPE 1.79, PBLUC_R_SQUARED 0.647, read-out: LUCIFERASE INFECTION ASSAY - IC50): 2.01 µM
c1cncc(-c2nc(Nc3ccc4n[nH]cc4c3)c3ccccc3n2)c1	3.39	IC50 (HEPG2TOX_HILL_SLOPE 1.55, HEPG2TOX_R_SQUARED 0.922, PBLUC_HILL_SLOPE 123, PBLUC_R_SQUARED 0.319, read-out: LUCIFERASE INFECTION ASSAY - IC50): 3.33 µM
Cc1cccc(NC(=O)CSc2nc3ccccc3c3nc(C)nn23)c1	0.789	IC50 (HEPG2TOX_HILL_SLOPE 1.51, HEPG2TOX_R_SQUARED 0.99, PBLUC_HILL_SLOPE 1.83, PBLUC_R_SQUARED 0.897, read-out: LUCIFERASE INFECTION ASSAY - IC50): 0.237 µM
COc1cncc(-c2cnc3sc(NCC4CCOCC4)nn23)c1	1.51	IC50 (HEPG2TOX_HILL_SLOPE 1.52, HEPG2TOX_R_SQUARED 0.935, PBLUC_HILL_SLOPE 11.6, PBLUC_R_SQUARED 0.526, read-out: LUCIFERASE INFECTION ASSAY - IC50): 1.25 µM
CC(=O)c1cccc(-c2cnc3ccc(-c4ccc5c(c4)OCO5)nn23)c1	7.88	IC50 (HEPG2TOX_HILL_SLOPE 1.55, HEPG2TOX_R_SQUARED 0.983, PBLUC_HILL_SLOPE 1.3, PBLUC_R_SQUARED 0.851, read-out: LUCIFERASE INFECTION ASSAY - IC50): 1.46 µM

SMILES	IC90 [µM]	other results
CC(=O)Nc1cccc(Nc2nccc3[nH]c(-c4ccccc4)cc23)c1	0.748	IC50 (HEPG2TOX_HILL_SLOPE 1.53, HEPG2TOX_R_SQUARED 0.824, PBLUC_HILL_SLOPE 2.66, PBLUC_R_SQUARED 0.657, read-out: LUCIFERASE INFECTION ASSAY - IC50): 0.328 µM
C/C(=N\NC(N)=S)c1csc(-c2ccccc2)n1	11.9	IC50 (HEPG2TOX_HILL_SLOPE 1.53, HEPG2TOX_R_SQUARED 0.983, PBLUC_HILL_SLOPE 21.6, PBLUC_R_SQUARED 0.0721, read-out: LUCIFERASE INFECTION ASSAY - IC50): 10.7 µM
O=[N+]([O-])c1ccccc1CS(=O)(=O)c1nc2ccccc2s1	> 9.87	IC50 (HEPG2TOX_HILL_SLOPE 1.54, HEPG2TOX_R_SQUARED 0.3, PBLUC_HILL_SLOPE 1.66, PBLUC_R_SQUARED 0.0862, read-out: LUCIFERASE INFECTION ASSAY - IC50): 5.91 µM
CCOc1ccc(S(=O)(=O)CC2=NCCc3cc(OC)c(OC)cc32)cc1	5.39	IC50 (HEPG2TOX_HILL_SLOPE 1.55, HEPG2TOX_R_SQUARED 0.854, PBLUC_HILL_SLOPE 1.98, PBLUC_R_SQUARED 0.428, read-out: LUCIFERASE INFECTION ASSAY - IC50): 1.78 µM
Cc1ccc(/N=C/c2c(-c3ccccc3Cl)[nH]c3ccccc23)cc1C	4.13	IC50 (HEPG2TOX_HILL_SLOPE 1.53, HEPG2TOX_R_SQUARED 0.955, PBLUC_HILL_SLOPE 2.45, PBLUC_R_SQUARED 0.607, read-out: LUCIFERASE INFECTION ASSAY - IC50): 1.68 µM
N#C/C(=N\Nc1ccc(Cl)cc1)C(=O)c1ccc(Cl)cc1	2.91	IC50 (HEPG2TOX_HILL_SLOPE 1.51, HEPG2TOX_R_SQUARED 0.876, PBLUC_HILL_SLOPE 2.05, PBLUC_R_SQUARED 0.674, read-out: LUCIFERASE INFECTION ASSAY - IC50): 0.996 µM
COc1ccc(-[n+]2c(C)cn3c2CCc2ccccc2-3)cc1	3.96	IC50 (HEPG2TOX_HILL_SLOPE 1.53, HEPG2TOX_R_SQUARED 0.982, PBLUC_HILL_SLOPE 13.1, PBLUC_R_SQUARED 0.299, read-out: LUCIFERASE INFECTION ASSAY - IC50): 3.35 µM
Cc1cccc(CN2CCC3(CC2)C(=O)N(Cc2ccccn2)C(=O)N3CCc2ccccc2)c1	> 7.04	IC50 (HEPG2TOX_HILL_SLOPE 1.55, HEPG2TOX_R_SQUARED 0.857, PBLUC_HILL_SLOPE 4.1, PBLUC_R_SQUARED 0.48, read-out: LUCIFERASE INFECTION ASSAY - IC50): 5.65 µM
Cc1cc(C(=O)Cn2c(CO)nc3ccccc32)c(C)n1-c1ccccc1	> 10	IC50 (HEPG2TOX_HILL_SLOPE 1.51, HEPG2TOX_R_SQUARED 0.587, PBLUC_HILL_SLOPE 1.38, 1.35, PBLUC_R_SQUARED 0.541, 0.883, read-out: LUCIFERASE INFECTION ASSAY - IC50): 3.87 µM
O=C(NC1CCN(c2ccc(S(=O)(=O)C(F)(F)F)cc2)CC1)C1CC1	2.59	IC50 (HEPG2TOX_HILL_SLOPE 1.52, HEPG2TOX_R_SQUARED 0.775, PBLUC_HILL_SLOPE 1.87, PBLUC_R_SQUARED 0.699, read-out: LUCIFERASE INFECTION ASSAY - IC50): 0.799 µM
CNc1nc2cnc(Nc3cccc(C)c3)cc2n1-c1cccc(C(F)(F)F)c1	> 10	IC50 (HEPG2TOX_HILL_SLOPE 1.54, HEPG2TOX_R_SQUARED 0.691, PBLUC_HILL_SLOPE 2.02, PBLUC_R_SQUARED 0.694, read-out: LUCIFERASE INFECTION ASSAY - IC50): 4.3 µM
Fc1cccc(-c2cn3c(-c4ccc5ncccc5c4)cnc3cn2)c1	0.986	IC50 (HEPG2TOX_HILL_SLOPE 1.51, HEPG2TOX_R_SQUARED 0.947, PBLUC_HILL_SLOPE 2.49, PBLUC_R_SQUARED 0.764, read-out: LUCIFERASE INFECTION ASSAY - IC50): 0.408 µM
Cc1ccc(CNc2ncnc3sccc23)cc1	> 10	IC50 (HEPG2TOX_HILL_SLOPE 1.53, HEPG2TOX_R_SQUARED 0.949, PBLUC_HILL_SLOPE 1.13, PBLUC_R_SQUARED 0.759, read-out: LUCIFERASE INFECTION ASSAY - IC50): 3.63 µM
CC(=O)c1cccc(-c2cnc3ccc(-c4cccc(C(N)=O)c4)nn23)c1	0.628	IC50 (HEPG2TOX_HILL_SLOPE 1.55, HEPG2TOX_R_SQUARED 0.943, PBLUC_HILL_SLOPE 2.62, PBLUC_R_SQUARED 0.854, read-out: LUCIFERASE INFECTION ASSAY - IC50): 0.271 µM
COc1cc(CNC(=O)Nc2nc3ccccc3s2)cc(OC)c1OC	> 10	IC50 (HEPG2TOX_HILL_SLOPE 1.53, HEPG2TOX_R_SQUARED 0.847, PBLUC_HILL_SLOPE 0.688, PBLUC_R_SQUARED 0.648, read-out: LUCIFERASE INFECTION ASSAY - IC50): 0.692 µM
S=C(Nc1ccccc1)N1CCCN(c2nc3ccc(Cl)cc3s2)CC1	3.16	IC50 (HEPG2TOX_HILL_SLOPE 1.54, HEPG2TOX_R_SQUARED 0.918, PBLUC_HILL_SLOPE 12.4, PBLUC_R_SQUARED 0.732, read-out: LUCIFERASE INFECTION ASSAY - IC50): 2.65 µM
